Read-outs that look alike come from different tables or passages of the source.
Tests used:
[1] = set-up: species or system cynomolgus monkeys; settings: cynomolgus monkey, in vivo
Procedure: Hematology and coagulation parameters. Hematology and coagulation parameters were determined 9-11 days prior to the start of the study, just prior to administering doses 1 (day 1) and 12 (day 23), five minutes after dosing (coagulation only), 30 minutes and 4 hours following dosing, one day after the 12th dose (day 24), and in recovery monkeys at sacrifice (day 37). The following were determined: red blood cell count and morphology, total and differential while blood cells, hemoglobin, hematocrit, prothrombin time, fibrinogen, mean cell hemoglobin, mean corpuscular volume, mean corpuscular hemoglobin concentration, platelet count, activate partial thromboplastin time, and D-dime. Hematology was determined at Sierra Nevada Laboratories (Reno, Nev.).

MT4 = assay type: cell-based, human
Procedure: (§1) Cytotoxicity Analysis. The cytotoxicity of T30177 was assayed as described above. […] The degree of cell proliferation was determined according to the manufacturer's instructions.
(§2) Cytotoxicity Assays. The cytotoxicity of T30177 was determined using several different cell lines and primary human cells as described above. The cytotoxicity profile obtained for log phase growing cells was variable depending upon the cell line used, while the slower growing PBMCs, PBLs, and macrophages all tolerated the compound at concentrations exceeding 100 μM as monitored using the trypan blue exclusion, [^3H]thymidine uptake, or [^3H]leucine uptake techniques.

CEM-SS = assay type: cell-based, human
Procedure: as §1, §2

U937 = assay type: cell-based, human
Procedure: as §1, §2

AA5 = assay type: cell-based, human
Procedure: as §1, §2

MT2 = assay type: cell-based, human
Procedure: as §1, §2

CEMx174 = assay type: cell-based, human
Procedure: as §1, §2

HIV-1DV [2] = assay: Acute infection of primary human macrophages (intracellular p24); assay type: cell-based
[3] = test system: HIV-1 strains (SKI, RF, DV, IIIB, ADP/141); assay: microbe, parasite or virus in culture; assay type: cell-based; settings: Human immunodeficiency virus 1, IIIB
HIV-1DV [4] = assay: HIV-1 p24 production in SUP T1 cells; assay type: cell-based; settings: Human immunodeficiency virus 1, 96 h; SUP T1, HIV-1DV, four days

5′-gtggtgggtgggtgggt-3′ (GTGGTGGGTGGGTGGGT; phosphorothioate termini, further chemistry not given here) [T30177, pPT version of parent compound I100-15, 17 mer]
eosinophils [1]: acute decrease in eosinophils
lymphocytes [1]: acute and transient increase in lymphocytes
CC50 (MT4): 70 ± 7.1 µM
TC25 (MT4): 34 ± 4.0 µM
TC95 (MT4): >100 µM
CC50 (CEM-SS): 92 ± 3 µM
TC25 (CEM-SS): 50.8 ± 3.2 µM
TC95 (CEM-SS): >100 µM
CC50 (U937): > 100 µM
TC25 (U937): >100 µM
TC95 (U937): >100 µM
CC50 (AA5): 94.2 ± 3.1 µM
TC25 (AA5): 45.66 ± 2.0 µM
TC95 (AA5): >100 µM
CC50 (MT2): 61.2 ± 5.5 µM
TC25 (MT2): 27 ± 3.5 µM
TC95 (MT2): >100 µM
CC50 (CEMx174): 50 ± 5.2 µM
TC25 (CEMx174): 10 ± 2.5 µM
TC95 (CEMx174): >100 µM
HIV-1 replication in macrophages (HIV-1DV [2]): significantly inhibited HIV-1 replication in macrophages

Cc1cn([C@H]2C[C@H](N=[N+]=[N-])[C@@H](CO)O2)c(=O)[nH]c1=O [AZT, 3′-azido-3′-deoxythymidine]
% CD4 (HIV-1 infected PBMCs; IIIB, drug 0.1 μM, day 7): 31%
% CD8 (HIV-1 infected PBMCs; IIIB, drug 0.1 μM, day 7): 79%
% CD4 (HIV-1 infected PBMCs; IIIB, drug 1.0 μM): 30%
% CD8 (HIV-1 infected PBMCs; IIIB, drug 1.0 μM): 81%
% CD4 (HIV-1 infected PBMCs; IIIB, drug 5.0 μM): 27%
% CD8 (HIV-1 infected PBMCs; IIIB, drug 5.0 μM): 86%
% CD4 (HIV-1 infected PBMCs; MN, drug 0.1 μM): 25%
% CD8 (HIV-1 infected PBMCs; MN, drug 0.1 μM): 82%
% CD4 (HIV-1 infected PBMCs; MN, drug 1.0 μM): 35%
% CD8 (HIV-1 infected PBMCs; MN, drug 1.0 μM): 79%
% CD4 (HIV-1 infected PBMCs; MN, drug 5.0 μM): 36%
% CD8 (HIV-1 infected PBMCs; MN, drug 5.0 μM): 78%
% CD4 (HIV-1 infected PBMCs; N. Amer. #1, drug 0.1 μM): 25%
% CD8 (HIV-1 infected PBMCs; N. Amer. #1, drug 0.1 μM): 83%
% CD4 (HIV-1 infected PBMCs; N. Amer. #1, drug 1.0 μM): 25%
% CD8 (HIV-1 infected PBMCs; N. Amer. #1, drug 1.0 μM): 84%
% CD4 (HIV-1 infected PBMCs; N. Amer. #1, drug 5.0 μM): 26%
% CD8 (HIV-1 infected PBMCs; N. Amer. #1, drug 5.0 μM): 85%
% CD4 (HIV-1 infected PBMCs; N. Amer. #2, drug 0.1 μM): 6%
% CD8 (HIV-1 infected PBMCs; N. Amer. #2, drug 0.1 μM): 95%
% CD4 (HIV-1 infected PBMCs; N. Amer. #2, drug 1.0 μM): 13%
% CD8 (HIV-1 infected PBMCs; N. Amer. #2, drug 1.0 μM): 89%
% CD4 (HIV-1 infected PBMCs; N. Amer. #2, drug 5.0 μM): 25%
% CD8 (HIV-1 infected PBMCs; N. Amer. #2, drug 5.0 μM): 85%
% CD4 (HIV-1 infected PBMCs; RF, drug 0.1 μM): 23%
% CD8 (HIV-1 infected PBMCs; RF, drug 0.1 μM): 84%
% CD4 (HIV-1 infected PBMCs; RF, drug 1.0 μM): 32%
% CD8 (HIV-1 infected PBMCs; RF, drug 1.0 μM): 76%
% CD4 (HIV-1 infected PBMCs; RF, drug 5.0 μM): 34%
% CD8 (HIV-1 infected PBMCs; RF, drug 5.0 μM): 81%
% CD4 (HIV-1 infected PBMCs; SE Asia isolate, drug 0.1 μM): 29%
% CD8 (HIV-1 infected PBMCs; SE Asia isolate, drug 0.1 μM): 82%
% CD4 (HIV-1 infected PBMCs; SE Asia isolate, drug 1.0 μM): 31%
% CD8 (HIV-1 infected PBMCs; SE Asia isolate, drug 1.0 μM): 82%
% CD4 (HIV-1 infected PBMCs; SE Asia isolate, drug 5.0 μM): 29%
% CD8 (HIV-1 infected PBMCs; SE Asia isolate, drug 5.0 μM): 86%
IC50 ([3]; CEM-SS, read-out: Antiviral Assay IC50 IIIB, HIV-1 IIIB, CEM-SS or MT4): 0.002 µM
IC50 ([3]; CEM-SS, read-out: Antiviral Assay IC50 RF, HIV-1 RF, CEM-SS or MT4): 0.007 µM
IC50 ([3]; CEM-SS, read-out: Antiviral Assay IC50 SKI, HIV-1 SKI, CEM-SS or MT4): 0.022 µM
IC50 ([3]; CEM-SS, read-out: IC50 (cpe assay), RF (CEM-SS), MOI 0.01): 0.01 µM
IC50 ([3]; CEM-SS, read-out: IC50 (cpe assay), RF (CEM-SS), MOI 0.02): 0.02 µM
IC50 ([3]; CEM-SS, read-out: IC50 (cpe assay), RF (CEM-SS), MOI 0.04): 0.07 µM
IC50 ([3]; CEM-SS, read-out: IC50 (cpe assay), RF (CEM-SS), MOI 0.64): > 10 µM
IC50 ([3]; CEM-SS, read-out: IC50 (cpe assay), RF (CEM-SS), MOI 1.28): > 10 µM
IC50 ([3]; CEM-SS, read-out: IC50 virus production, HIV-1 IIIB, CEM-SS): 0.002 ± 0.0003 µM
IC50 ([3]; CEM-SS, read-out: IC50 virus production, HIV-1 RF, CEM-SS, MOI 0.01): 0.007 µM
IC50 ([3]; CEM-SS, read-out: IC50 virus production, HIV-1 SKI, CEM-SS, MOI 0.01): 0.022 ± 0.0001 µM
IC90 ([3]; CEM-SS, read-out: IC90 (cpe assay), RF (CEM-SS), MOI 0.16): > 10 µM
IC90 ([3]; CEM-SS, read-out: IC90 (cpe assay), RF (CEM-SS), MOI 0.32): > 10 µM
IC90 ([3]; CEM-SS, read-out: IC90 (cpe assay), RF (CEM-SS), MOI 0.64): > 10 µM
IC90 ([3]; CEM-SS, read-out: IC90 (cpe assay), RF (CEM-SS), MOI 1.28): > 10 µM
IC50 ([3]; SUP-T1, read-out: IC50 virus production, HIV-1 DV, SUP T1): 0.03 ± 0.005 µM
IC50 ([3]; SUP-T1, read-out: IC50 virus production, HIV-1 IIIB, SUP T1): 0.03 ± 0.006 µM
IC50 ([3]; read-out: IC50 (cpe assay)): 0.037 µM
IC50 ([3]; read-out: IC50 (cpe assay), IIIB (MT4), MOI 0.01): 0.01 µM
IC50 ([3]; read-out: IC50 virus production, HIV-1 IIIB, AA5): < 0.003 µM
IC50 ([3]; read-out: IC50 virus production, HIV-1 IIIB, MT2): 0.01 ± 0.004 µM
IC50 ([3]; read-out: IC50 virus production, HIV-1 RF, MT2): 0.03 ± 0.005 µM
IC90 ([3]; read-out: IC90 (cpe assay), IIIB (MT4), MOI 0.3): 3.3 µM
IC50 (HIV-1DV [4]): 0.4 µM
